Molecular target: T1, human β3 receptors (Homo sapiens, UniProt P13945)
T1 construct: Full length β3 AR clones (402 amino acids) containing the last 6 amino acids of hβ3—AR; expressed in transfected cells; host or cells: CHO cells
Assay: cAMP response (SPA) in CHO cells expressing cloned human β3 adrenergic receptor
Type: cell-based
Details: for EC50: CHO cells expressing human β3 receptor, cAMP, 30 min incubation, 10^−9 M to 10^−5 M; for IA(β3): maximal response compared to the maximal response of isoproterenol at 10^−5 M
Description: Binding to the receptors was measured in Chinese Hamster ovary (CHO) cells that were transfected with adrenergic receptors.
Cloning of Human β3-AR Genomic DNA: cDNA was constructed by ligating four polymerase chain reaction (PCR) products using the following primers: an ATG-NarI fragment, sense primer 5′-[…]3′ and anti-sense primer 5′ […]3′; a NarI-AccI fragment, 5′ […]3′ as sense and 5′ […]3′ as anti-sense primer; an AccIi-StyI fragment, sense primer 5′ […]3′ and anti-sense primer 5′ […]3′ and a StyI-TAG fragment, with sense primer 5′ […]3′ and anti-sense primer 5′ […]3′. The corresponding primer sequences are described in Mantzoros, C. […] The four fragments are ligated into a pUC 18 plasmid (Gibco-BRL) and sequenced.
CHO cells were grown in 24-well tissue culture plates in Dulbecco's Modified Eagle Media with 10% fetal bovine serum, MEM non-essential amino acids, Penicillin-Streptompycin and Geneticin. […] Isoproterenol (10^−5 M) was used as an internal standard for comparison of activity. Cells were incubated at 37° C. on a rocker for 30 min with the β3 cells and 15 min for β1 and β2 cells. Incubation was stopped with the addition of 0.2N HCl and neutralized with 2.5N NaOH. The plates, containing the cells and neutralized media, were stored at −20 degrees celsius until ready to test for cAMP using the SPA test kit (Amersham).
Data Analysis and Results: Data collected from the SPA test procedure were analyzed as per cent of the maximal isoproterenol response at 10^−5 M. Activity curves were plotted using the SAS statistical and graphics software.

T1 sequence (P13945 whole entry): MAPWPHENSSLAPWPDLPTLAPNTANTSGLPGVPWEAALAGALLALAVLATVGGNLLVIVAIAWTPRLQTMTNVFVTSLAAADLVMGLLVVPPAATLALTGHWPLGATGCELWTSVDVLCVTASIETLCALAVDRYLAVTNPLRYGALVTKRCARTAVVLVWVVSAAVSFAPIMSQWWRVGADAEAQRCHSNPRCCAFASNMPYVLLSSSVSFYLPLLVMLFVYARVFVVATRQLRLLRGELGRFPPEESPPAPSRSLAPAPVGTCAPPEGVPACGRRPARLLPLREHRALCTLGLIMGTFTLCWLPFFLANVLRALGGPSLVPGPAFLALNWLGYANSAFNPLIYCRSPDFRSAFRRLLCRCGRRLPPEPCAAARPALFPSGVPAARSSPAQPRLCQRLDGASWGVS

EC50 | IA(β3) | SMILES
421 nM | 0.46 | COc1ccc(S(=O)(=O)N2CCC(CNC[C@H](O)COc3cccc4c3CC(=O)N4)CC2)cc1OC [Example 44, 4-((2S)-3-{[1-(3,4-Dimethoxy-benzenesulfonyl)-piperidin-4-ylmethyl]-amino}-2-hydroxy-propoxy)-1,3-dihydro-indol-2-one]
610 nM | 1 | O=[N+]([O-])c1ccc(S(=O)(=O)N2CCC(CNC[C@H](O)COc3ccc(O)cc3)CC2)cc1 [Example 45, 4-((2S)-2-Hydroxy-3-{[1-(4-nitro-benzenesulfonyl)-piperidin-4-ylmethyl]-amino}-propoxy)-phenol]
222 nM | 0.81 | O=C1Cc2c(cccc2OC[C@@H](O)CNCC2CCN(S(=O)(=O)c3ccc(OC(F)(F)F)cc3)CC2)N1 [Example 46, 4-((2S)-2-Hydroxy-3-{[1-(4-trifluoromethoxy-benzenesulfonyl)-piperidin-4-ylmethyl]-amino}-propoxy)-1,3-dihydro-indol-2-one]
250 nM | 0.7 | O=S(=O)(c1ccc(OC(F)(F)F)cc1)N1CCC(CNC[C@H](O)COc2ccc(O)cc2)CC1 [Example 47, 4-((2S)-2-Hydroxy-3-{[1-(4-trifluoromethoxy-benzenesulfonyl)-piperidin-4-ylmethyl]-amino}-propoxy)-phenol]
2360 nM | 0.4 | Cn1cnc(S(=O)(=O)N2CCC(CNC[C@H](O)COc3ccc(O)cc3)CC2)c1 [Example 49, 4-((2S)-2-Hydroxy-3-{[1-(1-methyl-1H-imidazole-4-sulfonyl)-piperidin-4-ylmethyl]-amino}-propoxy)-phenol]
305 nM | 0.9 | CCOC(=O)c1cccc(NC(=O)N2CCC(CNC[C@H](O)COc3ccc(O)cc3)CC2)c1 [Example 52, 3-[(4-{[(2S)-2-Hydroxy-3-(4-hydroxy-phenoxy)-propylamino]-methyl}-piperidine-1-carbonyl)-amino]-benzoic Acid Ethyl Ester]
110 nM | 0.53 | O=C(NC1CCCCC1)N1CCC(CNC[C@H](O)COc2cccc3[nH]c4ccccc4c23)CC1 [Example 56, 4-{[(2S)-3-(9H-Carbazol-4-yloxy)-2-hydroxy-propylamino]-methyl}-piperidine-1-carboxylic Acid Cyclohexylamide]
3190 nM | 0.46 | O=C(NC1CCCCC1)N1CCC(CNC[C@H](O)COc2ccc(O)cc2)CC1 [Example 57, 4-{[(2S)-2-Hydroxy-3-(4-hydroxy-phenoxy)-propylamino]-methyl}-piperidine-1-carboxylic Acid Cyclohexylamide]
97 nM | 0.4 | Cc1cc2cccc(OC[C@@H](O)CNCC3CCN(S(=O)(=O)c4ccc(NC(=O)Nc5ccccc5)cc4)CC3)c2[nH]1 [Example 61, 1-[4-(4-{[(2S)-2-Hydroxy-3-(2-methyl-1H-indol-7-yloxy)-propylamino]-methyl}-piperidine-1-sulfonyl)-phenyl]-3-phenyl-urea]
10 nM | 0.68 | O=C(Nc1ccccc1)Nc1ccc(S(=O)(=O)N2CCC(CNC[C@H](O)COc3cccc4[nH]c(=O)[nH]c34)CC2)cc1 [Example 62, 1-[4-(4-{[2-Hydroxy-3-(2-oxo-2,3-dihydro-1H-benzoimidazol-4-yloxy)-propylamino]-methyl}-piperidine-1-sulfonyl)-phenyl]-3-phenyl-urea]
20 nM | 1.2 | CS(=O)(=O)Nc1cc([C@@H](O)CNCC2CCN(S(=O)(=O)c3ccc(NC(=O)Nc4ccccn4)cc3)CC2)ccc1O [Example 67, N-{2-Hydroxy-5-[(1R)-1-hydroxy-2-({1-[4-(3-pyridin-2-yl-ureido)-benzenesulfonyl]-piperidin-4-ylmethyl}-amino)-ethyl]-phenyl}-methanesulfonamide]
96 nM | 0.6 | CCCCCCCCNC(=O)Nc1ccc(S(=O)(=O)N2CCC(CNCC(O)COc3cccc4[nH]c(C(N)=O)cc34)CC2)cc1 (stereo not shown) [Example 71, 4-[2-Hydroxy-3-({1-[4-(3-octyl-ureide)-benzenesulfonyl]-piperidin-4-ylmethyl}-amino)-propoxy]-1H-indole-2-carboxylic Acid Amide]
6 nM | 1 | CCCCCCCCNC(=O)Nc1ccc(S(=O)(=O)N2CCC(CNC[C@H](O)c3ccc(O)c(NS(C)(=O)=O)c3)CC2)cc1 [Example 73, (R)-N-{2-Hydroxy-5-[1-hydroxy-2-({1-[4-(3-octyl-ureido)-benzenesulfonyl]-piperidin-4-ylmethyl}-amino)-ethyl]-phenyl}-methanesulfonamide]
5 nM | 1.1 | CS(=O)(=O)Nc1cc([C@@H](O)CNCC2CCN(S(=O)(=O)c3ccc(NC(=O)NCCc4cc(F)ccc4F)cc3)CC2)ccc1O [Example 81, N-{5-[(1R)-2-({[1-({4-[({[2-(2,5-difluorophenyl)ethyl]amino]-carbonyl)amino}-phenyl}sulfonyl)piperidin-4-yl]methyl}amino)-1-hydroxyethyl]-2-hydroxyphenyl}-methanesulfonamide]
112 nM | 1.2 | O=C(Nc1ccc(S(=O)(=O)N2CCC(CNC[C@H](O)COc3ccc(O)cc3)CC2)cc1)Nc1c(F)cccc1F [Example 83]
27 nM | 0.93 | CC(C)N(Cc1c(F)cccc1F)C(=O)Nc1ccc(S(=O)(=O)N2CCC(CNC[C@H](O)c3ccc(O)c(NS(C)(=O)=O)c3)CC2)cc1 [Example 84, N-(5-{(1R)-2-[(1-{4-[3-(2,6-Difluoro-benzyl)-3-isopropyl-ureido]-benzenesulfonyl}-piperidin-4-ylmethyl)-amino]-1-hydroxy-ethyl}-2-hydroxy-phenyl)-methane-sulfonamide]
29 nM | 1.2 | CN(Cc1c(F)cccc1F)C(=O)Nc1ccc(S(=O)(=O)N2CCC(CNC[C@H](O)c3ccc(O)c(NS(C)(=O)=O)c3)CC2)cc1 [Example 85, N-(5-{2-[(1-{4-[3-(2,6-Difluoro-benzyl)-3-methyl-ureido]-benzenesulfonyl}-piperidin-4-ylmethyl)-amino]-1-hydroxy-ethyl}-2-hydroxy-phenyl)-methanesulfonamide]
7 nM | 1 | CN(Cc1cc(F)ccc1F)C(=O)Nc1ccc(S(=O)(=O)N2CCC(CNC[C@H](O)c3ccc(O)c(NS(C)(=O)=O)c3)CC2)cc1 [Example 87, N-[5-[(R)-2-[[[1-[[4-[[[[(2,5-Difluorophenyl)methyl]-methylamino]-carbonyl]amino]-phenyl]sulfonyl]-4-piperidinyl]methyl]amino]-1-hydroxyethyl]-2-hydroxyphenyl]-methanesulfonamide]
22 nM | 1 | COC(=O)COc1ccc(CNC(=O)Nc2ccc(S(=O)(=O)N3CCC(CNC[C@H](O)c4ccc(O)c(NS(C)(=O)=O)c4)CC3)cc2)c(F)c1 [Example 88, [3-Fluoro-4-[[[[[4-[[4-[[[(R)-2-hydroxy-2-[4-hydroxy-3-[(methylsulfonyl)amino]-phenyl]ethyl]amino]-methyl]-1-piperidinyl]sulfonyl]phenyl]amino]-carbonyl]-amino]methyl]phenoxy]acetic Acid, Methyl Ester]

SMILES | EC50 | IA(β3)
CC(C)N(Cc1cc(F)ccc1F)C(=O)Nc1ccc(S(=O)(=O)N2CCC(CNC[C@H](O)c3ccc(O)c(NS(C)(=O)=O)c3)CC2)cc1 [Example 86] | 3 nM | 0.78
